# Laboratory results from EP2646421B1, “7-NITRO-5-PHENYL-1-(PYRROLIDIN-1-YLMETHYL)-1H-BENZO[E][1,4]DIAZEPIN-2(3H)-ONE AND OTHER BENZODIAZEPINE DERIVATIVES” (Pignataro, Giuseppe, priority 2010, dated 2012).
# Columns and labels:
# rat cortical neurons = experiment: Oxygen and glucose deprivation (OGD) followed by reoxygenation; format: cell-based; conditions: 10 nM; 3 hours OGD followed by 21 hours of reoxygenation
# Protocol: The effect of neurounina-1 was evaluated on cell viability by using rat primary cortical neurons obtained as follow. Briefly, cortical neurons were prepared from brains of 1-2 day-old new-born rats, anaesthetizes with halothane in a glass chamber and decapitated. Dissection and dissociation were performed in a Ca^2+-Mg^2+-free PBS containing glucose. The brain was removed from the skull and the cerebral cortex was removed. Cerebral cortex was first digested enzymatically and after dispersed mechanically by trituration. Cellular suspension was plated on coverslips previously pre-coated with poly-D-lysine 1mg/ml and cultured in "Neurobasal" medium containing B27 (1:50) and Glutamax)1:100).
# The oxygen and glucose deprivation (OGD) was used as a model to reproduce in vitro a condition similar to that observed in vivo when a cerebral vessel was occluded as it occurs in stroke. Briefly, cells were incubated in a medium oxygen and glucose-free and containing: NaCl 116 mM, KCI 5.4 mM, MgSO4 0.8 mM, NaHCO3 26.2 mM, NaH2PO4 1 mM, CaCl2 1.8 mM, glycin 0.01 mM e phenol 0.001 mM (w/v) (Molinaro et al., 2008). This medium was previously saturated with 1 atm of a gas containing 95% N2 and 5% CO2 for 20 minutes. […]
# NCX2 = biological target: T1, NCX2 (Rattus norvegicus, UniProt P48768); experiment: Fura-2 AM single-cell microfluorimetry, BHK-NCX2 cells; format: cell-based; conditions: 10 nM (Fig. 2)
# T1 construct: expressed in transfected cells
# T1 sequence (P48768 21-921): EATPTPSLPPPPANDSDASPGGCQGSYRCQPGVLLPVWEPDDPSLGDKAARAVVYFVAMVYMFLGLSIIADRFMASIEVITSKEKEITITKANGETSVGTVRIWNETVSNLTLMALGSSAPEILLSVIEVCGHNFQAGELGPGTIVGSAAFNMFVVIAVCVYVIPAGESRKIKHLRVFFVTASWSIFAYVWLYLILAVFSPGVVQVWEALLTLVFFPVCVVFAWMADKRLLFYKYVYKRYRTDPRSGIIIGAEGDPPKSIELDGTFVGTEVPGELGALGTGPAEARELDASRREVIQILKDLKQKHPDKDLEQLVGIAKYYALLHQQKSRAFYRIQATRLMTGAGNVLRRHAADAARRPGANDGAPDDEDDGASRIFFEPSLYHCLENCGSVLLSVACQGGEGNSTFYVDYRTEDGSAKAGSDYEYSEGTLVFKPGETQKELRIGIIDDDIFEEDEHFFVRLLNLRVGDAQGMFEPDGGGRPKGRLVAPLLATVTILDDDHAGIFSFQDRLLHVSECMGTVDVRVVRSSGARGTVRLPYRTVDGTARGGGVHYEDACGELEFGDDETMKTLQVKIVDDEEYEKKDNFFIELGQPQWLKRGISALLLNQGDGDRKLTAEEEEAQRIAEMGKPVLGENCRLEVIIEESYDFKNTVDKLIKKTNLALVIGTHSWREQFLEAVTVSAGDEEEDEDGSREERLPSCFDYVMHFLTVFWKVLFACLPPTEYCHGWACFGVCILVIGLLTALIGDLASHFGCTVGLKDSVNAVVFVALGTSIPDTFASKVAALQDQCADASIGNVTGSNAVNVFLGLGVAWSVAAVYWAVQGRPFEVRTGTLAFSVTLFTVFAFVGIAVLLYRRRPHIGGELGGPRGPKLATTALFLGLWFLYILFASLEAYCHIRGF
# Protocol: The activity of NCX was established by means of three different subclones of baby hamsted kidney (BHK) cells that were stably transfected with one of each NCX isoforms, named BHK-NCX1, BHK-NCX2 and BHK-NCX3. These cell lines were grown on plastic dishes in a mix of DMEM and Ham's F12 media (1:1) (Gibco, Invitrogen, MI, Italy) supplemented with 5% fetal bovine serum, 100 U/ml penicillin, and 100 µg/ml streptomycin (Sigma, St. Louis, Missouri, USA). Cells were cultured in a humidified 5% CO2 atmosphere and at the temperature of 37°C.
# NCX activity has been measured considering the variation of intracellular concentrations of Ca^2+ ions ([Ca^2+]i) due to its activation by means of single-cell microfluorimetry. […] In both cases, this probe will produce an emission at 510 nm; the ratio between the two emission relative to 340 and 380 excitation allow to quantify [Ca^2+]i in the time considering the calibration curve previously performed. […]
# Briefly, BHK cells wild type and/or BHK trasnsfected with NCX mutants, grown on glass coverslips, were loaded with Fura-2 acetoxymethyl ester (Fura-2AM) (10 µM) for 30 minutes at 37°C in normal Krebs solution containing the following (in mM): 5.5 KCI, 160 NaCl, 1.2 MgCl2, 1.5 CaCl2, 10 glucose, and 10 Hepes-NaOH, pH 7.4. […] Fura-2 fluorescence intensity was measured every 3 seconds. […]
structure (smiles),measurement,setting,value
"O=C1CN=C(c2ccccc2)c2cc([N+](=O)[O-])ccc2N1CN1CCCC1 [neurounina-1, 7-nitro-5-phenyl-1-(pyrrolidin-1-ylmethyl)-1H-benzo[e][1,4]diazepin-2(3H)-one]",cell death of rat cortical neurons,rat cortical neurons,reduced cell death
same,increased reverse mode activity of NCX2,NCX2,40%
